Organism: Rattus norvegicus
Assay: Open TG-GATES - Regimen: Single
Assay type: toxicity, organism-based, Sprague-Dawley
Set-up: regimen Single, gender Male, age 6 weeks
Conditions: in vivo, po, 15 mg/kg, route gavage, dose level Low; for APTT / Bas / Eos / Fbg / Hb / Ht / Lym / MCH / MCHC / MCV / Mono / Neu / PT / Plat / RBC / Ret / WBC: tissue Blood; for KIDNEY_L / KIDNEY_R / KIDNEY_TOTAL: tissue Kidney; for LIVER: tissue Liver; for A/G / ALP / ALT / AST / BUN / CRE / Ca / Cl / DBIL / GLC / IP / K / LDH / Na / PL / RALB / TBIL / TC / TG / TP / gamma-GTP: tissue Plasma

For `CN(C)CCC=C1c2ccccc2CCc2ccccc21` [AMITRIPTYLINE], the TERMINAL_BW (3 h) was 194.5 g, the APTT (3 h) was 16.2 s and the Bas (3 h) was 0%. For the same molecule, the Eos (3 h) was 1%, the Fbg (3 h) was 267.4 mg/dL and the Hb (3 h) was 12.8 g/dL. For the same molecule, the Ht (3 h) was 39.3%, the Lym (3 h) was 73% and the MCH (3 h) was 21.2 pg. The MCHC (3 h) was 32.6%, the MCV (3 h) was 65 fL and the Mono (3 h) was 3%. It also gave a Neu (3 h) of 22.2%, a PT (3 h) of 16.2 s and a Plat (3 h) of 114.1 x10_4/uL. It also gave an RBC (3 h) of 604.8 x10_4/ul, a Ret (3 h) of 8.7% and a WBC (3 h) of 91.4 x10_2/uL. The KIDNEY_L (3 h) was 0.8 g, the KIDNEY_R (3 h) was 0.8 g and the KIDNEY_TOTAL (3 h) was 1.6 g. The LIVER (3 h) was 8.5 g, the A/G (3 h) was 0.8 and the ALP (3 h) was 1536.8 IU/L. The ALT (3 h) was 54.2 IU/L, the AST (3 h) was 74.4 IU/L and the BUN (3 h) was 10 mg/dL. It also gave a CRE (3 h) of 0.2 mg/dL, a Ca (3 h) of 11.1 mg/dL and a Cl (3 h) of 106.2 meq/L. For the same molecule, the DBIL (3 h) was 0.01 mg/dL, the GLC (3 h) was 181.6 mg/dL and the IP (3 h) was 8.8 mg/dL. It also gave a K (3 h) of 4.3 meq/L, an LDH (3 h) of 83.8 IU/L and a Na (3 h) of 143 meq/L. For the same molecule, the PL (3 h) was 142 mg/dL, the RALB (3 h) was 2.5 g/dL and the TBIL (3 h) was 0.058 mg/dL. The TC (3 h) was 80.2 mg/dL, the TG (3 h) was 52 mg/dL and the TP (3 h) was 5.4 g/dL. For the same molecule, the gamma-GTP (3 h) was 1 IU/L, the TERMINAL_BW (6 h) was 191.5 g and the APTT (6 h) was 16 s. For the same molecule, the Bas (6 h) was 0%, the Eos (6 h) was 1% and the Fbg (6 h) was 277.4 mg/dL. For the same molecule, the Hb (6 h) was 13 g/dL, the Ht (6 h) was 39.9% and the Lym (6 h) was 77.4%. It also gave an MCH (6 h) of 21.1 pg, an MCHC (6 h) of 32.6% and an MCV (6 h) of 64.6 fL. It also gave a Mono (6 h) of 2.6%, a Neu (6 h) of 18.4% and a PT (6 h) of 15.9 s. For the same molecule, the Plat (6 h) was 120 x10_4/uL, the RBC (6 h) was 617.8 x10_4/ul and the Ret (6 h) was 9.4%. It also gave a WBC (6 h) of 75 x10_2/uL, a KIDNEY_L (6 h) of 0.8 g and a KIDNEY_R (6 h) of 0.8 g. For the same molecule, the KIDNEY_TOTAL (6 h) was 1.6 g, the LIVER (6 h) was 7.8 g and the A/G (6 h) was 0.8. The ALP (6 h) was 1444.2 IU/L, the ALT (6 h) was 46.4 IU/L and the AST (6 h) was 77.6 IU/L. It also gave a BUN (6 h) of 8.8 mg/dL, a CRE (6 h) of 0.2 mg/dL and a Ca (6 h) of 10.6 mg/dL. It also gave a Cl (6 h) of 106.6 meq/L, a DBIL (6 h) of 0.014 mg/dL and a GLC (6 h) of 175.8 mg/dL. For the same molecule, the IP (6 h) was 9.2 mg/dL, the K (6 h) was 4.2 meq/L and the LDH (6 h) was 58.4 IU/L. It also gave a Na (6 h) of 143 meq/L, a PL (6 h) of 144.4 mg/dL and an RALB (6 h) of 2.4 g/dL. For the same molecule, the TBIL (6 h) was 0.07 mg/dL, the TC (6 h) was 84.4 mg/dL and the TG (6 h) was 43.8 mg/dL. It also gave a TP (6 h) of 5.3 g/dL, a gamma-GTP (6 h) of 1 IU/L and a TERMINAL_BW (9 h) of 192 g. It also gave an APTT (9 h) of 16.6 s, a Bas (9 h) of 0% and an Eos (9 h) of 0.8%. It also gave a Fbg (9 h) of 262.6 mg/dL, a Hb (9 h) of 12.8 g/dL and a Ht (9 h) of 39.3%. The Lym (9 h) was 67.4%, the MCH (9 h) was 21.5 pg and the MCHC (9 h) was 32.6%. For the same molecule, the MCV (9 h) was 65.8 fL, the Mono (9 h) was 2.4% and the Neu (9 h) was 29%. It also gave a PT (9 h) of 15.7 s, a Plat (9 h) of 117.7 x10_4/uL and an RBC (9 h) of 597 x10_4/ul. The Ret (9 h) was 9.3%, the WBC (9 h) was 87.8 x10_2/uL and the KIDNEY_L (9 h) was 0.9 g. It also gave a KIDNEY_R (9 h) of 0.9 g, a KIDNEY_TOTAL (9 h) of 1.7 g and an LIVER (9 h) of 7.4 g. It also gave an A/G (9 h) of 0.9, an ALP (9 h) of 1309.6 IU/L and an ALT (9 h) of 44.6 IU/L. For the same molecule, the AST (9 h) was 71.2 IU/L, the BUN (9 h) was 8.4 mg/dL and the CRE (9 h) was 0.2 mg/dL. For the same molecule, the Ca (9 h) was 10.7 mg/dL, the Cl (9 h) was 106.6 meq/L and the DBIL (9 h) was 0.006 mg/dL. The GLC (9 h) was 165.2 mg/dL, the IP (9 h) was 10.4 mg/dL and the K (9 h) was 3.9 meq/L. It also gave an LDH (9 h) of 69.2 IU/L, a Na (9 h) of 142.8 meq/L and a PL (9 h) of 140.4 mg/dL. For the same molecule, the RALB (9 h) was 2.5 g/dL, the TBIL (9 h) was 0.062 mg/dL and the TC (9 h) was 78.6 mg/dL. For the same molecule, the TG (9 h) was 33.2 mg/dL, the TP (9 h) was 5.4 g/dL and the gamma-GTP (9 h) was 1 IU/L. The TERMINAL_BW (24 h) was 206.4 g, the APTT (24 h) was 16 s and the Bas (24 h) was 0%. For the same molecule, the Eos (24 h) was 1%, the Fbg (24 h) was 259.2 mg/dL and the Hb (24 h) was 12.8 g/dL. The Ht (24 h) was 38.8%, the Lym (24 h) was 77.8% and the MCH (24 h) was 21.6 pg. For the same molecule, the MCHC (24 h) was 32.9%, the MCV (24 h) was 65.5 fL and the Mono (24 h) was 3%. It also gave a Neu (24 h) of 17.4%, a PT (24 h) of 16.4 s and a Plat (24 h) of 112.7 x10_4/uL. For the same molecule, the RBC (24 h) was 592.4 x10_4/ul, the Ret (24 h) was 8.1% and the WBC (24 h) was 89.3 x10_2/uL. It also gave a KIDNEY_L (24 h) of 0.9 g, a KIDNEY_R (24 h) of 0.9 g and a KIDNEY_TOTAL (24 h) of 1.8 g. The LIVER (24 h) was 9.4 g, the A/G (24 h) was 0.8 and the ALP (24 h) was 1812.6 IU/L. For the same molecule, the ALT (24 h) was 52.4 IU/L, the AST (24 h) was 78.6 IU/L and the BUN (24 h) was 14 mg/dL. It also gave a CRE (24 h) of 0.2 mg/dL, a Ca (24 h) of 10.9 mg/dL and a Cl (24 h) of 107 meq/L. For the same molecule, the DBIL (24 h) was 0.018 mg/dL, the GLC (24 h) was 179.2 mg/dL and the IP (24 h) was 7.3 mg/dL. For the same molecule, the K (24 h) was 4.2 meq/L, the LDH (24 h) was 74.2 IU/L and the Na (24 h) was 143 meq/L. It also gave a PL (24 h) of 146.8 mg/dL, an RALB (24 h) of 2.6 g/dL and a TBIL (24 h) of 0.056 mg/dL. The TC (24 h) was 77.2 mg/dL, the TG (24 h) was 82.2 mg/dL and the TP (24 h) was 5.6 g/dL. The gamma-GTP (24 h) was 1 IU/L.

From ChEMBL document CHEMBL3885861, “Open TG-GATES”
